Measured values reported in the CheMixHub viscosity set.

Experiment: xn = mol fraction of the nth substance listed

C1=CCCCC1 + C1CCCCC1
303.15 K, 101 kPa
Details	viscosity [mPa·s]
x1 = 0.1133	0.772
x1 = 0.2435	0.745
x1 = 0.3293	0.725
x1 = 0.3919	0.72
x1 = 0.4866	0.684
x1 = 0.582	0.678
x1 = 0.7181	0.654
x1 = 0.8663	0.62

C=C(C)C(=O)OCC + C1CCCCC1
viscosity [mPa·s], 101 kPa
Details	298.15 K	308.15 K
x1 = 0.0581	0.837	0.711
x1 = 0.1534	0.768	0.651
x1 = 0.2549	0.711	0.601
x1 = 0.3548	0.668	0.564
x1 = 0.3935	0.655	0.552
x1 = 0.5465	0.619	0.52
x1 = 0.5568	0.618	0.518
x1 = 0.6264	0.61	0.511
x1 = 0.7559	0.606	0.506
x1 = 0.8548	0.614	0.51
x1 = 0.9399	0.628	0.52

CC1CCCCC1 + C1CCCCC1
303.15 K, 101 kPa
Details	viscosity [mPa·s]
x2 = 0.0996	0.6425
x2 = 0.1991	0.6465
x2 = 0.2949	0.6574
x2 = 0.3948	0.6697
x2 = 0.497	0.6849
x2 = 0.6005	0.7041
x2 = 0.699	0.7258
x2 = 0.7978	0.7519
x2 = 0.8955	0.7854

CCCNCCC + C1CCCCC1
viscosity [mPa·s], 101 kPa
Details	x1 = 0.01137	x1 = 0.02125	x1 = 0.03212	x1 = 0.0414	x1 = 0.05092	x1 = 0.06219	x1 = 0.07269	x1 = 0.08114	x1 = 0.09193
303.15 K	0.8095	0.8028	0.7945	0.784	0.7745	0.7633	0.7535	0.7441	0.7334
313.15 K	0.7072	0.6995	0.692	0.6827	0.6721	0.6596	0.649	0.6399	0.6296

CCOC(=O)c1ccccc1 + C1CCCCC1
viscosity [mPa·s], 101 kPa
Details	x1 = 0.0779	x1 = 0.1586	x1 = 0.2454	x1 = 0.3327	x1 = 0.4305	x1 = 0.5312	x1 = 0.6374	x1 = 0.751	x1 = 0.868
303.15 K	0.82	0.832	0.88	0.937	1.025	1.123	1.248	1.387	1.552
308.15 K	0.78	0.801	0.84	0.89	0.96	1.047	1.157	1.295	1.439
313.15 K	0.708	0.727	0.772	0.819	0.885	0.967	1.069	1.198	1.33

Cc1cccc([N+](=O)[O-])c1 + C1CCCCC1
303.15 K, 101.33 kPa
Details	viscosity [mPa·s]
x1 = 0.206	0.93
x1 = 0.38	1.03
x1 = 0.593	1.25
x1 = 0.801	1.54

c1cscn1 + C1CCCCC1
298.15 K, 101 kPa
Details	viscosity [mPa·s]
x1 = 0.1468	0.8439
x1 = 0.2448	0.7891
x1 = 0.4908	0.8119
x1 = 0.7468	0.8753
x1 = 0.8357	0.904
x1 = 0.8841	0.928
x1 = 0.9385	0.958

CC1CCCCC1 + C1CCOC1
303.15 K, 101.33 kPa
Details	viscosity [mPa·s]
x2 = 0.111	0.604
x2 = 0.2072	0.576
x2 = 0.3062	0.548
x2 = 0.404	0.525
x2 = 0.4829	0.507
x2 = 0.504	0.503
x2 = 0.6018	0.487
x2 = 0.7067	0.47
x2 = 0.9006	0.447

CCCCCl + C1CCOC1
viscosity [mPa·s], 101 kPa
Details	298.15 K	313.15 K
x2 = 0.0418	0.4311	0.3702
x2 = 0.052	0.434	–
x2 = 0.0524	0.4231	0.3656
x2 = 0.0982	0.4366	0.3758
x2 = 0.0985	0.439	–
x2 = 0.108	0.425	0.3675
x2 = 0.153	0.443	–
x2 = 0.1781	0.442	0.3808
x2 = 0.2063	0.4287	0.3706
x2 = 0.2076	0.444	0.3826
x2 = 0.29	0.449	–
x2 = 0.2991	0.4324	0.3737
x2 = 0.2996	0.4479	0.3869
x2 = 0.36	0.452	–
x2 = 0.4	0.4522	0.3911
x2 = 0.4088	0.4367	0.3772
x2 = 0.4229	0.455	–
x2 = 0.445	0.456	–
x2 = 0.4998	0.4547	0.3937
x2 = 0.507	0.4408	0.3804
x2 = 0.5395	0.457	–
x2 = 0.5516	0.4553	0.3943
x2 = 0.5945	0.458	–
x2 = 0.5979	0.4565	0.3955
x2 = 0.6074	0.4453	0.3838
x2 = 0.6605	0.459	–
x2 = 0.6991	0.458	0.3977
x2 = 0.7001	0.4495	0.387
x2 = 0.7649	0.46	–
x2 = 0.8021	0.4598	0.3997
x2 = 0.8054	0.4546	0.3907
x2 = 0.8499	0.46	0.3999
x2 = 0.8658	0.461	–
x2 = 0.891	0.4587	0.3939
x2 = 0.8993	0.4607	0.4
x2 = 0.9108	0.46	–
x2 = 0.9519	0.4598	0.4006
x2 = 0.9528	0.4613	0.3961

CCOC(=O)c1ccccc1 + C1CCOC1
viscosity [mPa·s], 101 kPa
Details	x1 = 0.0601	x1 = 0.1259	x1 = 0.198	x1 = 0.2773	x1 = 0.3628	x1 = 0.4611	x1 = 0.5719	x1 = 0.6953	x1 = 0.8372
303.15 K	0.488	0.545	0.617	0.706	0.804	0.937	1.083	1.257	1.474
308.15 K	0.473	0.524	0.595	0.676	0.767	0.885	1.019	1.168	1.36
313.15 K	0.436	0.49	0.553	0.626	0.706	0.809	0.928	1.063	1.229

[Li+].[O-][Cl+3]([O-])([O-])[O-] + C1CCOC1
101 kPa, x1 = 0.07
Details	viscosity [mPa·s]
303.15 K	0.85
308.15 K	0.81
313.15 K	0.78
318.15 K	0.74
323.15 K	0.71

C1=CCCCC1 + C1COCCO1
303.15 K, 101 kPa
Details	viscosity [mPa·s]
x1 = 0.1067	0.932
x1 = 0.2617	0.833
x1 = 0.3551	0.789
x1 = 0.4267	0.754
x1 = 0.4787	0.734
x1 = 0.5637	0.702
x1 = 0.6603	0.668
x1 = 0.7706	0.634
x1 = 0.8678	0.606

CC1CCCCC1 + C1COCCO1
303.15 K, 101.3 kPa
Details	viscosity [mPa·s]
x2 = 0.1001	0.6334
x2 = 0.2013	0.6394
x2 = 0.296	0.653
x2 = 0.3948	0.6802
x2 = 0.5046	0.7196
x2 = 0.5993	0.7612
x2 = 0.7003	0.8213
x2 = 0.7956	0.8868
x2 = 0.896	0.9775

CCOC(=O)c1ccccc1 + C1COCCO1
viscosity [mPa·s], 101 kPa
Details	x1 = 0.0639	x1 = 0.1304	x1 = 0.1626	x1 = 0.2849	x1 = 0.3735	x1 = 0.4716	x1 = 0.5805	x1 = 0.7048	x1 = 0.8402
303.15 K	1.118	1.155	1.172	1.246	1.296	1.369	1.445	1.535	1.633
308.15 K	1.026	1.062	1.078	1.146	1.195	1.259	1.33	1.416	1.502
313.15 K	0.972	1.001	1.013	1.069	1.108	1.16	1.214	1.279	1.348

[Li+].[O-][Cl+3]([O-])([O-])[O-] + C1COCO1
101 kPa, x1 = 0.07
Details	viscosity [mPa·s]
303.15 K	1
308.15 K	0.93
313.15 K	0.89
318.15 K	0.85
323.15 K	0.81

Cc1cccc([N+](=O)[O-])c1 + CC1CCCCC1
303.15 K, 101.33 kPa
Details	viscosity [mPa·s]
x1 = 0.202	0.77
x1 = 0.4	0.89
x1 = 0.6	1.09
x1 = 0.799	1.43

C=C(C)C(=O)OCC + CC#N
viscosity [mPa·s], 101 kPa
Details	298.15 K	303.15 K	308.15 K	313.15 K	318.15 K
x2 = 0.0556	0.6285	0.5725	0.5246	0.4857	0.4542
x2 = 0.1112	0.6154	0.562	0.5162	0.479	0.4489
x2 = 0.1631	0.6027	0.5516	0.5079	0.4722	0.4433
x2 = 0.2147	0.5894	0.5408	0.499	0.4649	0.4372
x2 = 0.2795	0.5723	0.5266	0.4872	0.455	0.4287
x2 = 0.3446	0.5545	0.5115	0.4746	0.4443	0.4194
x2 = 0.4132	0.5349	0.495	0.4606	0.4322	0.4088
x2 = 0.4819	0.5147	0.4777	0.4458	0.4194	0.3974
x2 = 0.5597	0.4911	0.4574	0.4283	0.404	0.3836
x2 = 0.6375	0.4667	0.4364	0.41	0.3878	0.3689
x2 = 0.7251	0.4385	0.4119	0.3885	0.3686	0.3515
x2 = 0.8113	0.4101	0.387	0.3666	0.349	0.3334
x2 = 0.9014	0.3798	0.3604	0.343	0.3277	0.3137
x2 = 0.9542	0.3618	0.3445	0.3289	0.3148	0.3018

CCOC(=O)c1ccccc1 + CC#N
viscosity [mPa·s], 101.33 kPa
Details	x1 = 0.129	x1 = 0.25	x1 = 0.362	x1 = 0.469	x1 = 0.571	x1 = 0.657	x1 = 0.756	x1 = 0.832	x1 = 0.914
293.15 K	0.465	0.496	0.554	0.627	0.714	0.843	1.056	1.362	1.764
303.15 K	0.416	0.444	0.495	0.551	0.621	0.721	0.897	1.12	1.418
313.15 K	0.378	0.403	0.443	0.491	0.549	0.631	0.764	0.939	1.161
323.15 K	0.34	0.362	0.397	0.436	0.485	0.55	0.659	0.799	0.972

[Li+].[O-][Cl+3]([O-])([O-])[O-] + CC#N
viscosity [mPa·s], 101 kPa
Details	x1 = 0.0128	x1 = 0.0255	x1 = 0.0301	x1 = 0.536
296.15 K	0.444	–	–	0.66
297.15 K	–	0.53	–	–
313.15 K	0.399	0.473	0.958	0.628

CCOC(=O)c1ccccc1 + CC(=O)CC(C)C
viscosity [mPa·s], 101.33 kPa
Details	293.15 K	303.15 K
x2 = 0.0752	1.89	1.55
x2 = 0.1491	1.675	1.376
x2 = 0.2022	1.58	1.303
x2 = 0.3364	1.375	1.15
x2 = 0.4004	1.277	1.079
x2 = 0.5355	1.109	0.94
x2 = 0.6213	0.988	0.85
x2 = 0.7165	0.88	0.757
x2 = 0.7942	0.797	0.69
x2 = 0.8805	0.719	0.625
x2 = 0.9154	0.686	0.599
x2 = 0.9549	0.648	0.569

CNS(C)(=O)=O + CC(=O)N(C)C
303.15 K, 101.33 kPa
Details	viscosity [mPa·s]
x1 = 0.1009	1.104
x1 = 0.2022	1.473
x1 = 0.2303	1.578
x1 = 0.4082	2.571
x1 = 0.4802	3.127
x1 = 0.6009	4.202
x1 = 0.7019	5.204
x1 = 0.7958	6.184
x1 = 0.8966	7.185

CCOC(=O)c1ccccc1 + CC(=O)O
298.15 K, 101 kPa
Details	viscosity [mPa·s]
x2 = 0.1041	1.948
x2 = 0.2129	1.874
x2 = 0.3045	1.797
x2 = 0.3882	1.727
x2 = 0.475	1.651
x2 = 0.5822	1.538
x2 = 0.6826	1.446
x2 = 0.7956	1.322
x2 = 0.9132	1.202

CCCCCl + CC(C)(C)O
viscosity [mPa·s], 101 kPa
Details	x1 = 0.1052	x1 = 0.2087	x1 = 0.315	x1 = 0.4159	x1 = 0.5172	x1 = 0.6059	x1 = 0.7101	x1 = 0.8039	x1 = 0.8976
298.15 K	2.188	1.359	0.991	0.7867	0.6596	0.582	–	0.4746	0.4434
313.15 K	1.279	0.9194	0.7181	0.5981	0.5189	–	0.4243	0.3963	0.377
